This note sets out measurements from US7592336B2, “Hepatitis C virus inhibitors” (Bristol-Myers Squibb Company, priority 2005, dated 2009).

The target in test [1] is T1, HCV NS3/4A protease complex, BMS strain (UniProt P27958, species not given/STRAIN_BMS).
T1 construct: said of H77 and J4L6S, not expressly of BMS; fused on or other part: A three-lysine solubilising tail at the NS4A C-terminus and purification on Ni-NTA are described for the H77 and J4L6S constructs
Briefly: FRET peptide assay to monitor HCV NS3/4A proteolytic activity (BMS strain). Conditions: NS3/4A BMS strain; read-out: Activity Range (IC50). It is filed as biochemical, HCV genotype 1a. The text has this:
HCV NS3 protease complexes, derived from the BMS strain, H77 strain or J4L6S strain, were generated, as described below. These purified recombinant proteins were generated for use in a homogeneous assay (see below) to provide an indication of how effective compounds of the present disclosure would be in inhibiting HCV NS3 proteolytic activity.
Serum from an HCV-infected patient was obtained from Dr. T. Wright, San Francisco Hospital. An engineered full-length cDNA (compliment deoxyribonucleic acid) template of the HCV genome (BMS strain) was constructed from DNA fragments obtained by reverse transcription-PCR (RT-PCR) of serum RNA (ribonucleic acid) and using primers selected on the basis of homology between other genotype 1a strains. From the determination of the entire genome sequence, a genotype 1a was assigned to the HCV isolate according to the classification of Simmonds et al. (See P Simmonds, K A Rose, S Graham, S W Chan, F McOmish, B C Dow, E A Follett, P L Yap and H Marsden, J. Clin. Microbiol., 31(6), 1493-1503 (1993)). […] The infectious clones, H77 (1a genotype) and J4L6S (1b genotype) were obtained from R. Purcell (NIH) and the sequences are published in Genbank (AAB67036, see Yanagi, M., Purcell, R. H., Emerson, S. U. and Bukh, J. Proc. Natl. Acad. Sci. U.S.A. 94(16), 8738-8743 (1997); AF054247, see Yanagi, M., St Claire, M., Shapiro, M., Emerson, S. U., Purcell, R. H. and Bukh, J, Virology 244 (1), 161-172. (1998)).
NS3/4A protease complex-containing fractions were pooled and loaded on a desalting column Superdex-S200 pre-equilibrated with buffer D (25 mM HEPES, pH 7.5, 20% glycerol, 300 mM NaCl, 0.2% Triton X-100, 10 mM βME). Sample was loaded at a flow rate of 1 mL/min. NS3/4A protease complex-containing fractions were pooled and concentrated to approximately 0.5 mg/ml. The purity of the NS3/4A protease complexes, derived from the BMS, H77 and J4L6S strains, were judged to be greater than 90% by SDS-PAGE and mass spectrometry analyses. The enzyme was stored at −80° C., thawed on ice and diluted prior to use in assay buffer.
The purpose of this in vitro assay was to measure the inhibition of HCV NS3 protease complexes, derived from the BMS strain, H77 strain or J4L6S strain, as described above, by compounds of the present disclosure. This assay provides an indication of how effective compounds of the present disclosure would be in inhibiting HCV NS3 proteolytic activity.
In order to monitor HCV NS3/4A protease activity, an NS3/4A peptide substrate was used. The substrate was RET S1 (Resonance Energy Transfer Depsipeptide Substrate; AnaSpec, Inc. cat #22991) (FRET peptide), described by Taliani et al. in Anal. Biochem. 240(2):60-67 (1996). The sequence of this peptide is loosely based on the NS4A/NS4B natural cleavage site for the HCV NS3 protease except there is an ester linkage rather than an amide bond at the cleavage site. The peptide also contains a fluorescence donor, EDANS, near one end of the peptide and an acceptor, DABCYL, near the other end. The fluorescence of the peptide is quenched by […] resonance energy transfer (RET) between the donor and the acceptor, but as the NS3 protease cleaves the peptide the products are released from RET quenching and the fluorescence of the donor becomes apparent.
The peptide substrate was incubated with one of the three recombinant NS3/4A protease complexes, in the absence or presence of a compound of the present disclosure. The inhibitory effects of a compound were determined by monitoring the formation of fluorescent reaction product in real time using a Cytofluor Series 4000.
Assay buffer: 50 mM HEPES, pH 7.5; 0.15M NaCl; 0.1% Triton; 15% Glycerol; 10 mM βME. Substrate: 2 μM final concentration (from a 2 mM stock solution in DMSO stored at −20° C.). HCV NS3/4A protease type 1a (1b), 2-3 nM final concentration (from a 5 μM stock solution in 25 mM HEPES, pH 7.5, 20% glycerol, 300 mM NaCl, 0.2% Triton-X100, 10 mM βME). […]

The test system of test [2] is HCV replicon in HUH-7 cells. Briefly: HCV replicon FRET assay. Conditions: Hepatitis C virus, Huh-7; HCV replicon cell assay; read-out: Activity Range (EC50). It counts as cell-based, HCV strain 1b. The source says: An HCV replicon whole cell system was established as described by Lohmann V, Korner F, Koch J, Herian U, Theilmann L, Bartenschlager R., Science 285(5424):110-3 (1999). This system enabled us to evaluate the effects of our HCV Protease compounds on HCV RNA replication. Briefly, using the HCV strain 1b sequence described in the Lohmann paper (Assession number: AJ238799), an HCV cDNA was synthesized by Operon Technologies, Inc. (Alameda, Calif.), and the full-length replicon was then assembled in plasmid pGem9zf(+) (Promega, Madison, Wis.) using standard molecular biology techniques. The replicon consists of (i) the HCV 5′ UTR fused to the first 12 amino acids of the capsid protein, (ii) the neomycin phosphotransferase gene (neo), (iii) the IRES from encephalomyocarditis virus (EMCV), and (iv) HCV NS3 to NS5B genes and the HCV 3′ UTR. Plasmid DNAs were linearized with ScaI and RNA transcripts were synthesized in vitro using the T7 MegaScript transcription kit (Ambion, Austin, Tex.) according to manufacturer's directions. In vitro transcripts of the cDNA were transfected into the human hepatoma cell line, HUH-7. […] Resulting cell lines were characterized for positive and negative strand RNA production and protein production over time.
The HCV replicon FRET assay was developed to monitor the inhibitory effects of compounds described in the disclosure on HCV viral replication. HUH-7 cells, constitutively expressing the HCV replicon, were grown in Dulbecco's Modified Eagle Media (DMEM) (Gibco-BRL) containing 10% Fetal calf serum (FCS) (Sigma) and 1 mg/ml G418 (Gibco-BRL). Cells were seeded the night before (1.5×10^4 cells/well) in 96-well tissue-culture sterile plates. Compound and no compound controls were prepared in DMEM containing 4% FCS, 1:100 Penicillin/Streptomysin (Gibco-BRL), 1:100 L-glutamine and 5% DMSO in the dilution plate (0.5% DMSO final concentration in the assay). Compound/DMSO mixes were added to the cells and incubated for 4 days at 37° C. After 4 days, cells were first assessed for cytotoxicity using alamar Blue (Trek Diagnotstic Systems) for a CC50 reading. The toxicity of compound (CC50) was determined by adding 1/10th volume of alamar Blue to the media incubating the cells. After 4 h, the fluorescence signal from each well was read, with an excitation wavelength at 530 nm and an emission wavelength of 580 nm, using the Cytofluor Series 4000 (Perspective Biosystems). Plates were then rinsed thoroughly with Phosphate-Buffered Saline (PBS) (3 times 150 μl). The cells were lysed with 25 μl of a lysis assay reagent containing an HCV protease substrate (5× cell Luciferase cell culture lysis reagent (Promega #E153A) diluted to 1× with distilled water, NaCl added to 150 mM final, the FRET peptide substrate (as described for the enzyme assay above) diluted to 10 μM final from a 2 mM stock in 100% DMSO. […]. The plate was then placed into the Cytofluor 4000 instrument which had been set to 340 nm excitation/490 nm emission, automatic mode for 21 cycles and the plate read in a kinetic mode. EC50 determinations were carried out as described for the IC50 determinations.

T1 sequence (P27958 1027-1657, change not shown, one chain of several): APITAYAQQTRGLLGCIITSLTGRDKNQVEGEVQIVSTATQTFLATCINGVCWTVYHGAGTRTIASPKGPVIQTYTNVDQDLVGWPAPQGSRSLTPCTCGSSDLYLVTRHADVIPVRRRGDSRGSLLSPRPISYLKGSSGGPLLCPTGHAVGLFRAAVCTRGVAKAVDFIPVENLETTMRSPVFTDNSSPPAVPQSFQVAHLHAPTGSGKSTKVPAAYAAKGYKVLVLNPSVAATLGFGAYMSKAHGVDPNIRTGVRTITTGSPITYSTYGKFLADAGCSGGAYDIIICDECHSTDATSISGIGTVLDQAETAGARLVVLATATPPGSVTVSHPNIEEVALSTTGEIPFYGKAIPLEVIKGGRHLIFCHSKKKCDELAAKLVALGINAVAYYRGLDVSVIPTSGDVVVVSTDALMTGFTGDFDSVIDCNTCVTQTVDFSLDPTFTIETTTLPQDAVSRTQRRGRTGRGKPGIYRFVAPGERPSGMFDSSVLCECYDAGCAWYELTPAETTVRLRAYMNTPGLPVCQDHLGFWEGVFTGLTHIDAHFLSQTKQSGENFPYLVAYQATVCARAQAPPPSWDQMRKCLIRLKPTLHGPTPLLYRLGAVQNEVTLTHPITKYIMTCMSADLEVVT

In the case of `C=C[C@@H]1C[C@]1(NC(=O)[C@@H]1C[C@@](O)(c2cccc(F)c2)CN1C(=O)[C@@H](NC(=O)OC(C)(C)C)C(C)(C)C)C(=O)NS(=O)(=O)C1CC1` [Compound 10], the IC50 (as a rule, the point on the concentration scale where inhibition reaches its midpoint) in test [1] fell in the range of 0.001 to 0.1 µM. Further, the EC50 (usually the concentration needed to bring the measured effect to its halfway point) in test [2] was in the range of 1 to 10 µM.

`C=C[C@@H]1C[C@]1(NC(=O)[C@@H]1C[C@@](O)(c2cc(F)ccc2OC)CN1C(=O)[C@@H](NC(=O)OC(C)(C)C)C(C)(C)C)C(=O)NS(=O)(=O)C1CC1` [Compound 25]: in test [1], the IC50 was 0.1 to 1 µM. Further, the EC50 in test [2] fell in the range of 1 to 10 µM.

Turning to `C=C[C@@H]1C[C@]1(NC(=O)[C@@H]1C[C@@](O)(c2cccc(C)c2)CN1C(=O)[C@@H](NC(=O)OC(C)(C)C)C(C)(C)C)C(=O)NS(=O)(=O)C1CC1` [Compound 13], the IC50 in test [1] was 0.001 to 0.1 µM. Moreover, in test [2], the EC50 was 1 to 10 µM.

With `C=C[C@@H]1C[C@]1(NC(=O)[C@@H]1C[C@@](O)(c2ccc3ccccc3c2)CN1C(=O)[C@@H](NC(=O)OC(C)(C)C)C(C)(C)C)C(=O)NS(=O)(=O)C1CC1` [Compound 5], the IC50 in test [1] lay within 0.001 to 0.1 µM. In addition, the EC50 in test [2] was 0.01 to 1 µM.

For the compound `C=C[C@@H]1C[C@]1(NC(=O)[C@@H]1C[C@@](O)(c2cccc(OC)c2)CN1C(=O)[C@@H](NC(=O)OC(C)(C)C)C(C)(C)C)C(=O)NS(=O)(=O)C1CC1` [Compound 11], the IC50 in test [1] lay in the range of 0.001 to 0.1 µM. The EC50 in test [2] lay in the range of 1 to 10 µM.

For the compound `C=C[C@@H]1C[C@]1(NC(=O)[C@@H]1C[C@@](O)(c2ccc(F)cc2)CN1C(=O)[C@@H](NC(=O)OC(C)(C)C)C(C)(C)C)C(=O)NS(=O)(=O)C1CC1` [Compound 6], the IC50 in test [1] was 0.1 to 1 µM. For the same compound, the EC50 in test [2] lay in the range of 1 to 10 µM.
